Patent US8071294B2, “Cancer therapy sensitizer” (Dana-Farber Cancer Institute, priority 2003, dated 2011)

How the values were obtained:
[1] = test system: MIP/5FU tumor xenografts; experiment: MIP/5FU tumor xenograft animal model; assay type: in vivo, NIH nude mice; settings: 5-FU alone (FIG. 18), n=6
Experimental: (§1) Concentrated SPARC-containing supernatant [SPARC(s)]—MIP/SP cells were plated at 1×10^6 cells in […] in DMEM (10% FBS, 1% penicillin/streptomycin, 0.1% Zeocin) for 24 hrs. Cells were subsequently washed with PBS twice and incubated in serum-free VP-SFM medium supplemented with glutamine 4 mM (Invitrogen) for 72 hrs. This medium was concentrated from 500 ml to 2 ml using Centricon Filter units (Millipore) at 4° C. All media collected and processed by this method were used for subsequent animal studies.
(§2) Animal Studies—Tumor xenograft animal models were used to assess the effect of SPARC on tumor progression in-vivo. NIH nude mice (6 weeks old, Taconic Laboratories) were engrafted following subcutaneous injection of 2×10^6 cells into the left flank. Treatment regimens were initiated once the average tumor size was 50-75 mm^3 in size. Tumor measurements were performed using a hand-held caliper (Fisher) twice weekly and weight measurements were made concurrently until the completion of the study. Chemotherapy was provided using a 3-week cycle regimen for a total of 6 cycles: 5-FU 25 mg/kg or CPT-11 25 mg/kg intraperitoneal injections three times on week 1 of each cycle, followed by 2 weeks of treatment-free periods. Dosing schedule for SPARC(s) was 100 μL of SPARC(s) three times per week until the completion of the chemotherapy cycle.

[2] = test system: MIP/SP tumor xenografts; experiment: Tumor xenografts of SPARC-overexpressing cells treated with chemotherapy; assay type: in vivo, NIH nude mice; settings: for rate of tumor regression, MIP/SP versus parental MIP101 xenografts: FIG. 14
Experimental: as §2

[3] = test system: parental MIP101 cells; experiment: TUNEL assay of apoptosis in parental MIP101 cells; assay type: cell-based
Experimental: (§3) Cell Culture—The colorectal cell line MIP-101 was maintained in Dulbecco's modified Eagle's medium (DMEM) (Invitrogen) supplemented with 10% fetal bovine serum (FBS) (Invitrogen), 1% penicillin/streptomycin (Invitrogen) at 37° C. and 5% CO2. Resistant MIP101 cells were developed following long-term incubation with incremental concentrations of 5-fluorouracil (5-FU), irinotecan (CPT-11), cisplatin (CIS), and etoposide (ETO). Stable MIP101 cells transduced with SPARC (MIP/SP) were maintained in DMEM supplemented with 10% FBS, 1% penicillin/streptomycin, and 0.1% Zeocin at 37° C. and 5% CO2.
(§4) Quantitation of Apoptosis—For the TUNEL assay, cells were plated onto glass coverslips in 6-well plates at 250,000 cells/plate overnight prior to any induction study 24 hours later. […] Cells were then processed for labeling by Apoptosis Detection Kit (Promega) according to the manufacturer's instructions. For quantitation of apoptosis, cells were plated at 250,000 cells/plate in 6-well plates overnight, followed by 12-hr incubation with the following chemotherapy agents: 5-FU 1000 μM, CPT-11 200 μM, cisplatin 100p4, and etoposide 10 μM. Cells were collected by using a nonenzymatic cell dissociation medium (Sigma), washed with phosphate-buffered saline and subsequently stained for Annexin V and propidium iodide using an Apoptosis detection kit (R & D Research) according to the manufacturer's protocol. The proportion of cells labeled with Annexin V and propidium iodide was analyzed by XL Flow Cytometry Analyzer. Data was collected from 100,000 events.

[4] = test system: MIP101 cells resistant to 5-FU (MIP-5FUR, MIP/5FU); experiment: TUNEL assay of apoptosis in 5-FU resistant MIP101 cells; assay type: cell-based
Experimental: as §3, §4

[5] = test system: MIP/SP cells; experiment: Quantitation of apoptosis by Annexin V labeling and flow cytometry, SPARC-overexpressing cells versus control; assay type: cell-based; settings: 12-hr exposure, p<0.05
Experimental: Quantitation of Apoptosis—For the TUNEL assay, cells were plated onto glass coverslips in 6-well plates at 250,000 cells/plate overnight prior to any induction study 24 hours later. For the assessment of apoptosis following exogenous SPARC (Haematologic Technologies Inc), cells were incubated with SPARC 5 μg/ml for 24 hrs followed by a 12-hr exposure to 5-FU 1000 μM. Cells were then processed for labeling by Apoptosis Detection Kit (Promega) according to the manufacturer's instructions. For quantitation of apoptosis, cells were plated at 250,000 cells/plate in 6-well plates overnight, followed by 12-hr incubation with the following chemotherapy agents: 5-FU 1000 μM, CPT-11 200 μM, cisplatin 100p4, and etoposide 10 μM. Cells were collected by using a nonenzymatic cell dissociation medium (Sigma), washed with phosphate-buffered saline and subsequently stained for Annexin V and propidium iodide using an Apoptosis detection kit (R & D Research) according to the manufacturer's protocol. The proportion of cells labeled with Annexin V and propidium iodide was analyzed by XL Flow Cytometry Analyzer. Data was collected from 100,000 events.
(§5) Transfection and Selection of Clone—The SPARC cDNA was cloned into pcDNA3.1 expression vector. Transfections were performed with 2.0 μg of the gene/expression vector construct using the polyethylenimine method of Boussiff et al. (1995) with minor modifications (Tai et al., 2002). After transfection, cells were washed with phosphate-buffered saline (PBS, pH 7.4) and maintained in culture medium for 24 hours, followed by a change to an appropriate selection medium containing 1% Zeocin. Cells were selected based on Zeocin resistance and individual colonies and clones from these colonies were then propagated for further verification. Stably transduced clones (MIP/SP) were screened for SPARC mRNA expression by reverse-transcription polymerase chain reaction (RT-PCR) analysis. MIP/SP clones with the highest expression of SPARC mRNA (by RT-PCR) and protein (by Western blot) were selected for subsequent in-vitro and in-vivo studies. Control cell lines used for this study included MIP101 cells stably transduced with pcDNA3.1 empty vector only (MLP/Zeo) and selected based on Zeocin resistance.

[6] = test system: MIP/SP cells; experiment: Colony forming (clonogenic) assay, SPARC-overexpressing cells versus control; assay type: cell-based; settings: increasing concentrations of chemotherapy (FIG. 21B)
Experimental: as §5, with “resistance. Colony forming Assay—For clonogenic cell survival studies, MIP101 parental cells and MIP/SP cells were plated at 1,000 cells/plate in 48-well plates and incubated with increasing concentrations of 5-FU (0, 10 μM, 100 μM, 1000 μM), CPT-11 (0, 1 μM, 10 μM, 100 μM), or etoposide (0, 10 μM, 100 μM, 1000 μM) for 4 days. Cells were then washed with PBS and incubated in fresh medium containing the appropriate concentrations of chemotherapy for an additional 7 days. Each well was stained with crystal violet and the colonies with more than 50 cells were counted. The number of colonies formed in the treated group was calculated based on the colonies formed from the control, untreated cells.” for “resistance.”

[7] = test system: MIP101 tumor xenografts; experiment: MIP101 tumor xenograft animal model; assay type: in vivo, NIH nude mice; settings: 5-FU alone, n=6
Experimental: as §1, §2

**Q.** `O=c1[nH]cc(F)c(=O)[nH]1` [5-FU, 5-fluorouracil] was tested. Which tumor growth [1] did it give?
**A.** rapid tumor growth continued

**Q.** And the “rate of tumor regression, MIP/SP versus parental MIP101 xenografts” value [2]?
**A.** more rapid rate of tumor regression

**Q.** What about the “remission of MIP-SPARC xenograft” value ([2]; representative animals, 2 cycles of 5-FU, by 23 days post-transplant) of the same molecule?
**A.** complete remission

**Q.** What about the “apoptosis (TUNEL)” value ([3]; parental sensitive MIP101 cells, 5-FU at a similar concentration (500 uM)) of the same molecule?
**A.** a significant number of cells from the parental, sensitive cell line underwent apoptosis

**Q.** What about the “apoptosis (TUNEL stain)” value ([3]; sensitive MIP101 cells, 5-FU 1000 uM (FIG. 21A)) of the same molecule?
**A.** positively stained cells

**Q.** And the “apoptosis (TUNEL)” value ([4]; MIP-5FUR cells, 5-FU 500 uM)?
**A.** could not be triggered to undergo apoptosis

**Q.** What about the “apoptosis (TUNEL stain)” value ([4]; resistant phenotype (MIP/5FU), 5-FU 1000 uM (FIG. 21A)) of the same molecule?
**A.** lack of apoptosis

**Q.** What about the “cells undergoing apoptosis, MIP/SP versus MIP/Zeo” value [5] of the same molecule?
**A.** Greater number

**Q.** And the “cell colonies, MIP/SP versus MIP/Zeo” value [6]?
**A.** fewer cell colonies of MIP/SP cells

**Q.** And the complete tumor regression ([7]; by 42 days post-treatment (FIG. 17))?
**A.** not observed

**Q.** And the complete tumor regression ([7]; by 84 days post-treatment (FIG. 16))?
**A.** not observed

**Q.** `CCc1c2c(nc3ccc(OC(=O)N4CCC(N5CCCCC5)CC4)cc13)-c1cc3c(c(=O)n1C2)COC(=O)[C@]3(O)CC` [CPT-11, irinotecan] was tested. Which “rate of tumor regression, MIP/SP versus parental MIP101 xenografts” value [2] did it give?
**A.** more rapid rate of tumor regression

**Q.** And the “tumor size versus parental MIP101 xenograft” value ([2]; representative animals, 2 cycles of CPT-11)?
**A.** significantly smaller tumors

**Q.** What about the “cells undergoing apoptosis, MIP/SP versus MIP/Zeo” value [5] of the same molecule?
**A.** Greater number

**Q.** And the “cell colonies, MIP/SP versus MIP/Zeo” value [6]?
**A.** fewer cell colonies of MIP/SP cells

**Q.** `N.N.[Cl][Pt][Cl]` [cisplatin] was tested. Which “cells undergoing apoptosis, MIP/SP versus MIP/Zeo” value [5] did it give?
**A.** Greater number

**Q.** `COc1cc([C@@H]2c3cc4c(cc3[C@@H](O[C@@H]3O[C@@H]5CO[C@@H](C)O[C@H]5[C@H](O)[C@H]3O)[C@H]3COC(=O)[C@H]23)OCO4)cc(OC)c1O` [etoposide] was tested. Which “cells undergoing apoptosis, MIP/SP versus MIP/Zeo” value [5] did it give?
**A.** Greater number

**Q.** And the “cell colonies, MIP/SP versus MIP/Zeo” value [6]?
**A.** fewer cell colonies of MIP/SP cells

B1: SPARC: Secreted protein acidic and rich in cystein; exogenous SPARC polypeptide (Haematologic Technologies Inc) (protein, UniProt P09486 18-303, looked up)
SPARC: APQQEALPDETEVVEETVAEVTEVSVGANPVQVEVGEFDDGAEETEEEVVAENPCQNHHCKHGKVCELDENNTPMCVCQDPTSCPAPIGEFEKVCSNDNKTFDSSCHFFATKCTLEGTKKGHKLHLDYIGPCKYIPPCLDSELTEFPLRMRDWLKNVLVTLYERDEDNNLLTEKQKLRVKKIHENEKRLEAGDHPVELLARDFEKNYNMYIFPVHWQFGQLDQHPIDGYLSHTELAPLRAPLIPMEHCTTRFFETCDLDNDKYIALDEWAGCFGIKQKDIDKDLVI
**Q.** Which results are given for B1?
**A.** apoptosis (TUNEL), SPARC alone ([3]; parental MIP 101 cells, exogenous SPARC alone without chemotherapy): did not induce apoptosis; sensitivity to 5-FU (TUNEL-positive cells) ([4]; MIP/5FU cells, 24 hr SPARC 5 ug/ml, then 5-FU 1000 uM (FIG. 21A)): once again became sensitive to 5-FU; apoptosis (TUNEL), SPARC alone ([4]; resistant cells, exogenous SPARC alone without chemotherapy): did not induce apoptosis; reversal of resistant phenotype (apoptotic cells by TUNEL) ([4]; resistant clones, SPARC 24-hr incubation followed by 12-hr exposure to a chemotherapeutic agent): sufficient in reversing the resistant phenotype
